Test results as given in patent US8444988B2, “Cancer treatment method” (GlaxoSmithKline LLC, priority 2001, dated 2013).

Tests used:
Format in all cases: in vivo
[1] = tested on: NCI H322 (human lung tumor line); assay: NCI H322 subcutaneous human xenograft mouse model, anti-tumor activity; settings: monotherapy; NCI H322 s.c. xenograft; FIG. 3
Procedure: Cells were harvested following trypsin digestion and brought to a density of 2×10^6 cells/200 μl in PBS. Tumors were initiated by injection of the cell suspension subcutaneously in the axillary region. In addition some experiments were performed following serial transplantation of tumor fragments in SCID mice. Tumors were initiated by injection of tumor fragments subcutaneously in the axillary region.

[2] = tested on: HN5 (human head and neck tumor line); assay: HN5 subcutaneous human xenograft mouse model, anti-tumor activity; settings: monotherapy, at highest dose; HN5 s.c. xenograft; FIG. 1
Procedure: HN5 cells were cultured in RPMI 1640+10% Fetal bovine serum, Sodium pyruvate and L-Glutamine at 37° in a 95/5% air/CO2 atmosphere. Cells were harvested following trypsin digestion and brought to a density of 2×10^6 cells/200 μl in PBS. Tumors were initiated by injection of the cell suspension subcutaneously in the axillary region.
For the xenograft models used here solid tumors were measured by electronic caliper measurement through the skin, measurements were typically made twice weekly. In the examples presented, tumors were monitored beyond the duration of therapy
Drugs were administered by P.O. or IV. routes. The title compound or salt thereof of Example 1 was formulated in aqueous 0.5% hydroxypropyl methylcellulose, 0.1% Tween 80 and administered as a suspension twice daily for 21 days as indicated in the respective figures. TAXOL® (paclitaxel) (Bristol Myers Squibb Co.) was purchased preformulated in Cremophor-EL saline and diluted into saline to a final Cremophor-EL concentration of 5 or 10% Cremophor-EL for 10 or 20 mg/kg TAXOL® (paclitaxel) therapy respectively. TAXOL® (paclitaxel) was administered IV., once a day, for 5 days (days 1-5 of Example 1 therapy) as indicated in the respective figures. […]

[3] = tested on: BT474 (human breast tumor line); assay: BT474 subcutaneous human xenograft mouse model, anti-tumor activity; settings: monotherapy (Example 1 at the highest dose tested); BT474 s.c. xenograft; FIG. 2
Procedure: The BT474 xenograft was maintained by serial transplantation in SCID mice. Tumors are initiated by injection of tumor fragments subcutaneously in the axillary region.
Drugs were administered by P.O. or IV. routes. The title compound or salt thereof of Example 1 was formulated in aqueous 0.5% hydroxypropyl methylcellulose, 0.1% Tween 80 and administered as a suspension twice daily for 21 days as indicated in the respective figures. TAXOL® (paclitaxel) (Bristol Myers Squibb Co.) was purchased preformulated in Cremophor-EL saline and diluted into saline to a final Cremophor-EL concentration of 5 or 10% Cremophor-EL for 10 or 20 mg/kg TAXOL® (paclitaxel) therapy respectively. TAXOL® (paclitaxel) was administered IV., once a day, for 5 days (days 1-5 of Example 1 therapy) as indicated in the respective figures. Carboplatin (Sigma) was formulated in saline and was administered I.V., once a day, for two 5 day periods as indicated in the respective figure (days 1-5 and 15-19 of Example 1 therapy).

Row | SMILES | tumor growth inhibition [1] | tumor growth inhibition [2] | tumor growth inhibition [3]
1 | CS(=O)(=O)CCNCc1ccc(-c2ccc3ncnc(Nc4ccc(OCc5cccc(F)c5)c(Cl)c4)c3c2)o1 [Example 1, N-{3-Chloro-4-[(3-fluorobenzyl)oxy]phenyl}-6-[5-({[2-(methylsulfonyl)ethyl]amino}methyl)-2-furyl]-4-quinazolinamine] | 100-130% | about 80% | about 90%
2 | CC(=O)O[C@H]1C(=O)[C@@]2(C)[C@H]([C@H](OC(=O)c3ccccc3)[C@]3(O)C[C@H](OC(=O)[C@H](O)[C@@H](NC(=O)c4ccccc4)c4ccccc4)C(C)=C1C3(C)C)[C@]1(OC(C)=O)CO[C@@H]1C[C@@H]2O [TAXOL® (paclitaxel), 5β,20-epoxy-1,2α,4,7β,10β,13α-hexa-hydroxytax-11-en-9-one 4,10-diacetate 2-benzoate 13-ester with (2R,3S)-N-benzoyl-3-phenylisoserine] | about 45% |  | about 45%
3 | N.N.O=C([O-])C1(C(=O)[O-])CCC1.[Pt+2] [Carboplatin, platinum, diammine [1,1-cyclobutane-dicarboxylate(2-)-O,O′]] |  | about 45% | 
